Converted amounts (≈) assume the structure as drawn. The source made the active and inactive calls. The rule behind the calls is not given here.
How the values were obtained:
[1] = Hemolytic activity in mouse RBC at 62.5 ug/ml after 1 hr relative to control; assay type: ADME, cell-based, Erythrocyte; settings: mouse red blood cells (erythrocytes), read-out: Activity
Cryptococcus neoformans [2] = assay: Antifungal activity against Cryptococcus neoformans isolate CN2 measured after 48 hrs by CLSI M27-A3 protocol based method; assay type: functional; settings: Cryptococcus neoformans, isolate CN2, 48 h; read-out: MIC
Candida albicans [3] = assay: Antifungal activity against Candida albicans ATCC 10231 measured after 48 hrs by CLSI M27-A3 protocol based method; assay type: functional; settings: ATCC 10231, 48 h
Candida albicans [4] = assay: Antifungal activity against fluconazole/ITC-susceptible Candida albicans ATCC MYA-2876 measured after 48 hrs by CLSI M27-A3 protocol based method; assay type: functional; settings: Candida albicans, ATCC MYA-2876, 48 h
Candida albicans [5] = assay: Antifungal activity against fluconazole/ITC-resistant Candida albicans ATCC 90819 measured after 48 hrs by CLSI M27-A3 protocol based method; assay type: functional; settings: Candida albicans, ATCC 90819, 48 h; read-out: MIC
Candida albicans [6] = assay: Antifungal activity against fluconazole/ITC-resistant Candida albicans ATCC MYA-1237 measured after 48 hrs by CLSI M27-A3 protocol based method; assay type: functional; settings: Candida albicans, ATCC MYA-1237, 48 h; read-out: MIC
Nakaseomyces glabratus [7] = assay: Antifungal activity against Candida glabrata ATCC 2001 measured after 48 hrs by CLSI M27-A3 protocol based method; assay type: functional, CBS 138; settings: Nakaseomyces glabratus, CBS 138, 48 h; read-out: MIC
Pichia kudriavzevii = assay: Antifungal activity against Candida krusei ATCC 6258 measured after 48 hrs by CLSI M27-A3 protocol based method; assay type: functional; settings: Pichia kudriavzevii, ATCC 6258, 48 h
Candida parapsilosis [8] = assay: Antifungal activity against Candida parapsilosis ATCC 22019 measured after 48 hrs by CLSI M27-A3 protocol based method; assay type: functional; settings: Lodderomyces parapsilosis, ATCC 22019, 48 h
Aspergillus nidulans [9] = assay: Antifungal activity against Aspergillus nidulans ATCC 38163 measured after 48 hrs by CLSI M38-A2 protocol based method; assay type: functional; settings: ATCC 38163, 48 h
Aspergillus flavus = assay: Antifungal activity against Aspergillus flavus ATCC MYA-3631 measured after 48 hrs by CLSI M38-A2 protocol based method; assay type: functional; settings: ATCC MYA-3631, 48 h
Aspergillus terreus = assay: Antifungal activity against Aspergillus terreus ATCC MYA-3633 measured after 48 hrs by CLSI M38-A2 protocol based method; assay type: functional; settings: ATCC MYA-3633, 48 h
Nakaseomyces glabratus [10] = assay: Antifungal activity against Candida glabrata isolate CG1 measured after 48 hrs by CLSI M27-A3 protocol based method; assay type: functional; settings: Nakaseomyces glabratus, 48 h; read-out: MIC
Nakaseomyces glabratus [11] = assay: Antifungal activity against Candida glabrata isolate CG2 measured after 48 hrs by CLSI M27-A3 protocol based method; assay type: functional; settings: Nakaseomyces glabratus, isolate CG2, 48 h; read-out: MIC
Nakaseomyces glabratus [12] = assay: Antifungal activity against Candida glabrata isolate CG3 measured after 48 hrs by CLSI M27-A3 protocol based method; assay type: functional; settings: Nakaseomyces glabratus, 48 h; read-out: MIC
Candida parapsilosis [13] = assay: Antifungal activity against Candida parapsilosis isolate CP1 measured after 48 hrs by CLSI M27-A3 protocol based method; assay type: functional; settings: Lodderomyces parapsilosis, isolate CP1, 48 h
Candida parapsilosis [14] = assay: Antifungal activity against Candida parapsilosis isolate CP2 measured after 48 hrs by CLSI M27-A3 protocol based method; assay type: functional; settings: Lodderomyces parapsilosis, isolate CP2, 48 h
Cryptococcus neoformans [15] = assay: Antifungal activity against Cryptococcus neoformans isolate CN1 measured after 48 hrs by CLSI M27-A3 protocol based method; assay type: functional; settings: isolate CN1, 48 h
Cryptococcus neoformans [16] = assay: Antifungal activity against Cryptococcus neoformans isolate CN3 measured after 48 hrs by CLSI M27-A3 protocol based method; assay type: functional; settings: Cryptococcus neoformans, isolate CN3, 48 h; read-out: MIC
Candida parapsilosis [17] = assay: Antifungal activity against Candida parapsilosis isolate CP3 measured after 48 hrs by CLSI M27-A3 protocol based method; assay type: functional; settings: Lodderomyces parapsilosis, isolate CP3, 48 h
Candida albicans [18] = assay: Antifungal activity against Candida albicans ATCC 10231 measured after 48 hrs in presence of 10% FBS by CLSI M27-A3 protocol based method; assay type: functional; settings: Candida albicans, ATCC 10231, 48 h
Candida parapsilosis [19] = assay: Antifungal activity against Candida parapsilosis ATCC 22019 measured after 48 hrs in presence of 10% FBS by CLSI M27-A3 protocol based method; assay type: functional; settings: Lodderomyces parapsilosis, ATCC 22019, 48 h
Aspergillus nidulans [20] = assay: Antifungal activity against Aspergillus nidulans ATCC 38163 measured after 48 hrs in presence of 10% FBS by CLSI M38-A2 protocol based method; assay type: functional; settings: ATCC 38163, 48 h
[21] = Hemolytic activity in mouse RBC at 0.48 ug/ml after 1 hr relative to control; assay type: ADME, cell-based, Erythrocyte; settings: mouse red blood cells (erythrocytes), read-out: Activity
[22] = Hemolytic activity in mouse RBC at […] ug/ml after 1 hr relative to control; assay type: ADME, cell-based, Erythrocyte; settings: mouse red blood cells (erythrocytes), read-out: Activity
[23] = Hemolytic activity in mouse RBC at 1.95 ug/ml after 1 hr relative to control; assay type: ADME, cell-based, Erythrocyte; settings: mouse red blood cells (erythrocytes), at 1.95 µg/mL, read-out: Activity
[24] = Hemolytic activity in mouse RBC at 3.9 ug/ml after 1 hr relative to control; assay type: ADME, cell-based, Erythrocyte; settings: mouse red blood cells (erythrocytes), read-out: Activity
[25] = Hemolytic activity in mouse RBC at 7.8 ug/ml after 1 hr relative to control; assay type: ADME, cell-based, Erythrocyte; settings: mouse red blood cells (erythrocytes), read-out: Activity
[26] = Hemolytic activity in mouse RBC at 31.3 ug/ml after 1 hr relative to control; assay type: ADME, cell-based, Erythrocyte; settings: mouse red blood cells (erythrocytes), at 31.3 µg/mL, read-out: Activity
[27] = Cytotoxicity against HEK293 cells assessed as cell survival at 3.9 ug/ml after 24 hrs by resazurin based assay relative to control; settings: human, read-out: Survival
BEAS-2B = assay: Cytotoxicity against human BEAS2B cells up to 7.8 ug/ml after 24 hrs by resazurin based assay; assay type: cell-based
A549 = assay: Cytotoxicity against human A549 cells up to 7.8 ug/ml after 24 hrs by resazurin based assay; assay type: cell-based; settings: a549, 24 h
Candida albicans [28] = assay: Induction of membrane permeabilization in Candida albicans ATCC 10231 assessed as membrane disruption at 4 times MIC after 1 hr by propidium iodide staining based fluorescence microscopy; assay type: functional, organism-based
Candida albicans [29] = assay: Inhibition of Candida albicans ATCC 10231 ERG11 assessed as ergosterol composition of total sterols at 0.48 ug/ml incubated for 10 mins followed by saponification for 2 hrs by GC-MS method (reference value: 100%); set-up: scale not given: the % may be the effect or the level left
Candida albicans [30] = assay: Inhibition of Candida albicans ATCC 10231 ERG11 assessed as lanosterol composition of total sterols at 0.48 ug/ml incubated for 10 mins followed by saponification for 2 hrs by GC-MS method relative to control; set-up: scale not given: the % may be the effect or the level left
Candida albicans [31] = assay: Inhibition of Candida albicans ATCC 10231 ERG11 assessed as eburicol composition of total sterols at 0.48 ug/ml incubated for 10 mins followed by saponification for 2 hrs by GC-MS method relative to control; set-up: scale not given: the % may be the effect or the level left
Candida albicans [32] = assay: Inhibition of Candida albicans ATCC 10231 ERG11 assessed as 14alphamethyl ergosta-8,24(28)-diene-3beta,6alpha-diol composition of total sterols at 0.48 ug/ml incubated for 10 mins followed by saponification for 2 hrs by GC-MS method relative to control; set-up: scale not given: the % may be the effect or the level left
Candida albicans [33] = assay: Ratio of MIC for Candida albicans ATCC 10231 in presence of 10% FBS to MIC for Candida albicans ATCC 10231 in absence of 10% FBS; assay type: functional
Aspergillus nidulans [34] = assay: Ratio of MIC for Aspergillus nidulans ATCC 38163 in presence of 10% FBS to MIC for Aspergillus nidulans ATCC 38163 in absence of 10% FBS; assay type: functional

CCCCCCCCCCCCNCC(O)(Cn1cncn1)c1ccc(F)cc1F (stereo not given) gave a hemolysis at 1 h, 62.5 ug/ml [1] of 98%, an MIC (Cryptococcus neoformans [2]) of 0.57 µM (≈ 0.241 µg/mL) and an MIC (Candida albicans [3]) of 2.3 µM (≈ 0.972 µg/mL). It also gave an MIC (Candida albicans [4]) of 9.2 µM (≈ 3.89 µg/mL), an MIC (Candida albicans [5]) of 4.6 µM (≈ 1.94 µg/mL) and an MIC (Candida albicans [6]) of 18.5 µM (≈ 7.82 µg/mL). It also gave an MIC (Nakaseomyces glabratus [7]) of 2.3 µM (≈ 0.972 µg/mL), an MIC (Pichia kudriavzevii) of 2.3 µM (≈ 0.972 µg/mL) and an MIC (Candida parapsilosis [8]) of 1.1 µM (≈ 0.465 µg/mL). It also gave an MIC (Aspergillus nidulans [9]) of 4.6 µM (≈ 1.94 µg/mL), an MIC (Aspergillus flavus) of 18.5 µM (≈ 7.82 µg/mL) and an MIC (Aspergillus terreus) of 9.2 µM (≈ 3.89 µg/mL). It also gave an MIC (Nakaseomyces glabratus [10]) of 4.6 µM (≈ 1.94 µg/mL), an MIC (Nakaseomyces glabratus [11]) of 2.3 µM (≈ 0.972 µg/mL) and an MIC (Nakaseomyces glabratus [12]) of 4.6 µM (≈ 1.94 µg/mL). The MIC (Candida parapsilosis [13]) was 0.14 µM (≈ 0.0592 µg/mL), the MIC (Candida parapsilosis [14]) was 0.57 µM (≈ 0.241 µg/mL) and the MIC (Cryptococcus neoformans [15]) was 0.57 µM (≈ 0.241 µg/mL). It also gave an MIC (Cryptococcus neoformans [16]) of 1.1 µM (≈ 0.465 µg/mL), an MIC (Candida parapsilosis [17]) of 0.28 µM (≈ 0.118 µg/mL) and an MIC (Candida albicans [18]) of 1.95 µg/mL. For the same compound, the MIC (Candida parapsilosis [19]) was 0.24 µg/mL, the MIC (Aspergillus nidulans [20]) was 7.8 µg/mL and the hemolysis at 1 h, 0.48 ug/ml [21] was 2%. The hemolysis at 1 h, 0.975 ug/ml [22] was 2%, the hemolysis at 1 h, 15.6 ug/ml [22] was 86% and the hemolysis at 1 h, 1.95 ug/ml [23] was 2%. For the same compound, the hemolysis at 1 h, 3.9 ug/ml [24] was 8%, the hemolysis at 1 h, 7.8 ug/ml [25] was 21% and the hemolysis at 1 h, 31.3 ug/ml [26] was 100%. The viability at 24 h, 3.9 ug/ml [27] was greater than 50%, the Activity (BEAS-2B) was “Non-Toxic” and the Activity (A549) was “Non-Toxic”. The Activity (Candida albicans [28]) was “Active”, the Activity (Candida albicans [29]) was 36.6% and the Activity (Candida albicans [30]) was 10%. For the same compound, the Activity (Candida albicans [31]) was 0.57%, the Activity (Candida albicans [32]) was 4.69% and the Ratio (Candida albicans [33]) was 2. For the same compound, the Ratio (Aspergillus nidulans [34]) was 4.

Reference: ChEMBL document CHEMBL4118101 (Bioorg Med Chem, 2018)
